Reference: patent publication US5783700A, “Quinolic acid derivatives” (priority 1997, dated 1998)
Entries after “also recorded” stand apart in the source; their conditions may differ.

Legend:
TTE seizure = test: Threshold tonic extension (TTE) test, ip; assay type: in vivo, male Carworth Farms no. 1 mice; conditions: for minimal effective dose at 100 mg/kg: ip 100 mg/kg, 1/4 to 4 hr post treatment, 12.5 mA, bracketed = maximum ineffective dose (given as >), unbracketed = effective dose (=), read-out: TTE: effective or [maximum ineffective] intraperitoneal dose
Procedure: (§1) Biological Testing--Compounds were screened for anticonvulsant activity in male Carworth Farms no. 1 mice. The maximal electroshock (MES), subcutaneous Metrazol (pentylenetetrazole) (Met), and threshold tonic extension (TTE) tests were used to evaluate compounds for anticonvulsive activity. A rotorod protocol was used to determine neurotoxicity. Solutions for injection were prepared in 30% polyethylene glycol 400. Except for the TTE tests, animals were dosed ip at two different time periods: either 30 min. or 4 hr prior to testing. At each time period, three groups of four mice were tested at the following dose levels: 30, 100, and 300 mg/kg. This treatment protocol was followed for MES, Met, and rotorod testing.
The threshold tonic extension (TTE) test is similar to the MES screen but uses a lower level of electrical current (Piredda et al., 1985). The lower current makes the test more sensitive but less discriminate than the MES screen. Twenty mice were pretreated ip with 100 mg/kg of the test compound. At time intervals of 1/4, 1/2, 1, 2, and 4 hr post treatment, 4 mice were challenged with 12.5 mA of electrical current for 0.2 sec. via corneal electrodes. This current produces a TTE seizure in untreated animals. Protection was defined as an absence of seizures. Additional TTE testing was conducted on compound 10 to determine the ED50 value for the observed protective effect. In this case, 6 groups containing either 8 or 16 animals were injected ip and tested two hours following treatment. Each group received a specified dose ranging from 20-500 mg/kg. An ED50 value was determined from a log dose-response plot of the resulting data.

[1] = Rotorod test for drug induced neurological deficit (neurotoxicity), ip; assay type: in vivo, male Carworth Farms no. 1 mice; conditions: for Rotorod: effective or [maximum ineffective] intraperitoneal dose: neurotoxicity, 30 min or 4 hr, 30, 100, 300 mg/kg, bracketed = maximum ineffective dose (given as >), unbracketed = effective (neurotoxic) dose (=)
Procedure: as §1
Animals were tested for drug induced neurological deficit using a rotorod. Either 30 min. or 4 hr after treatment, the animal was placed on a 1-inch diameter knurled plastic rod rotating at 6 rpm. Neurological deficit was defined as the failure of the animal to remain on the rod for 1 min.

[2] = target: T1, glycine binding site on the NMDA receptor (Rattus norvegicus, UniProt P35439); test: Inhibition of [^3 H]-5,7-dichlorokynurenic acid specific binding; assay type: rat (cerebral cortex membranes); conditions: for [^3 H]-5,7-dichlorokynurenic acid displacement: 10 uM; for remaining activity at 10 µM: 0.25 h, pH 7.4, 10 uM test compound, read-out: Inhibition of [^3 H]-5,7-Dichlorokynurenic Acid Binding, % of Control; for remaining activity at 10 µM / Inhibition of [^3 H]-5,7-Dichlorokynurenic Acid Binding, % of Control: 10 nM radioligand, pH 7.4, mean ± SEM of three determinations; for Inhibition of [^3 H]-5,7-Dichlorokynurenic Acid Binding, % of Control: 10 uM test compound, 15 min, 10 µM
T1 construct: Membranes were prepared from rat cerebral cortex; from tissue; host or cells: rat cerebral cortex, "buffy coat" membrane fragments
Procedure: Binding Studies--The procedure of Baron et al. (1991) was used to assay for the inhibition of specific binding at the glycine binding site on the NMDA receptor. The labeled ligand used in this assay was [^3 H]-5,7-dichlorokynurenic acid (15.8 Ci/mmol) from DuPont-New England Nuclear (Boston, Mass.). […] Inhibition of specific binding was determined for selected compounds at a concentration of 10 uM using "buffy coat" membrane fragments (Jones et al., 1989). Membranes were prepared from rat cerebral cortex and assays were conducted in 50 mM HEPES-KOH buffer (Sigma, St. Louis, Mo.) at pH 7.4. Membranes were incubated in a final volume of 1 mL containing 10 nM [^3 H]-5,7-dichlorokynurenic acid. Incubation was continued for 15 min. at 4° C. Nonspecific binding was determined in the presence of 1 mM glycine and subtracted. Binding was terminated by centrifugation at 48,000×g for 10 min. Each of the resultant pellets was washed rapidly with 1 mL ice water and solubilized with 1 mL of a tissue solubilizer (Solvable, DuPont NEN). The solubilized samples were each dissolved in 10 mL 3a70B Complete Counting Cocktail (RPI, Mount Prospect, Ill.). Membrane bound radioactivity was determined using a Beckman LS-5000TD liquid scintillation counter. This screening procedure was conducted in triplicate in three separate tests. Results are presented as percent of control (±SEM, standard error of the mean).

[3] = Overall in vivo activity (MES, Met, TTE, rotorod); design: species or system male Carworth Farms no. 1 mice; conditions: ip
Procedure: as §1
Maximal electroshock (MES) induced seizures were elicited with a 60 cycle alternating current of 50 mA intensity (five to seven times the intensity necessary to evoke minimal electroshock threshold seizures). Current was delivered via corneal electrodes for 0.2 sec. A drop of 0.9% saline was instilled in the eye prior to application of the electrodes. Abolition of the hindlimb tonic extension component of the seizure was defined as protection. […]
The threshold tonic extension (TTE) test is similar to the MES screen but uses a lower level of electrical current (Piredda et al., 1985). […] An ED50 value was determined from a log dose-response plot of the resulting data. […]

[4] = tested on: NMDA-associated PCP binding site; test: [^3 H]-TCP binding displacement; assay type: rat (cerebral cortex membranes)
Procedure: Compound 10 was also screened for activity at the NMDA-associated PCP binding site, and, additionally, for activity at the GABA-A neuroreceptor. To determine possible effects on PCP binding, N-(1-(2-thienyl)cyclohexyl)-3,4-[^3 H]-piperidine ("[^3 H]-TCP") binding was assayed using the technique of Johnson et al. (1988). TCP is the thienyl derivative of PCP. Binding of [^3 H]-TCP to the NMDA receptor complex can be modulated by glycine agonists and antagonists (Benavides et al., 1988). DuPont-New England Nuclear was the source for [^3 H]-TCP (44.5 Ci/mmol). Membranes were prepared as described above. Assays were conducted in 5 mM Tris-acetate (pH 7.4) buffer containing 10 uM L-glutamic acid and 3 uM glycine. […] Nonspecific binding was determined in the presence of 30 uM PCP and subtracted. Samples were incubated at 24° C. for 1 hr. Binding was terminated using a Brandel M-24C cell harvester employing rapid filtration through GF/C glass filters presoaked in 0.1%(v/v)polyethylenimine. Filters were washed rapidly with two 1 mL aliquots of ice-cold water. Samples were run in triplicate at six different drug concentrations ranging from 1 uM to 5 nM. The experiment was repeated with buffer containing 0.1 mM L-glu and no added glycine. Two separate assays were conducted for each experiment.

GABA-A neuroreceptor = test: [^3 H]-muscimol competition binding; assay type: rat (cerebral cortex membranes); conditions: 5 nM [^3 H]-muscimol, compound 10 uM to 10 nM
Procedure: Compound 10 was screened for activity at the GABA-A neuroreceptor complex using [^3 H]-muscimol (20.0 Ci/mmol), also from DuPont-New England Nuclear. The filtration method reported by Williams and Risley (1979) was used for this assay. Membranes were initially prepared as described previously and frozen at -20° C. in distilled water for 24 hr. After thawing, membranes were resuspended in 50 mM Tris-acetate buffer (pH 7.0) which contained 0.1% (v/v) saponin (Sigma). The tissue was centrifuged at 48,000×g for 20 min. and the resulting pellet was resuspended in 30 volumes of 50 mM Tris-acetate buffer (pH 7.0) containing 100 mM KCI. The tissue was again centrifuged at 48,000×g for 20 min. After decanting the supernatant, the pellet was covered with fresh KCI containing Tris-acetate buffer and frozen for 24 hr.
On the day of the assay, the tissue was thawed and resuspended in 30 volumes of 50 mM Trisacetate (pH 7.0) with 100 mM KCI and centrifuged at 48,000×g for 20 min. This washing procedure was repeated twice. The final pellet was resuspended in 32 mL buffer. Membranes were incubated in a final volume of 1 mL with 5 nM [^3 H]-muscimol at 4° C. for 30 min. Samples were run in triplicate employing six different concentrations of compound 10 ranging from 10 uM to 10 nM. The assay was performed in duplicate. Each sample, including controls, contained 1.0% dimethyl sulfoxide (DMSO) to insure solubilization of the test compound. Nonspecific binding was determined in the presence of 200 uM gamma-aminobutyric acid (GABA) and subtracted. Binding was terminated using a Brandel M-24C cell harvester employing rapid filtration through GF/C glass fiber filters presoaked in 0.1% (v/v) polyethylenimine. Filters were washed with 1 mL cold water. Radioactivity bound to the filters was determined by scintillation counting.

| Compound | minimal effective dose at 100 mg/kg (TTE seizure; Mus musculus) [mg/kg] | Rotorod: effective or [maximum ineffective] intraperitoneal dose [1] [mg/kg] | remaining activity at 10 µM [2] [%] | Inhibition of [^3 H]-5,7-Dichlorokynurenic Acid Binding, % of Control [2] | further results |
| --- | --- | --- | --- | --- | --- |
| CCOC(=O)c1cc(NC(=O)N(C)C)c2c(Cl)cc(Cl)cc2n1 [Compound 4] | > 100 | > 300 | 57 ± 1 |  | [^3 H]-5,7-dichlorokynurenic acid displacement [2]: active; in vivo / CNS anticonvulsant activity [3]: no in vivo activity; also recorded: no CNS activity; also recorded: did not have any in vivo effects |
| CCN(CC)C(=O)Nc1cc(C(=O)OC)nc2cc(Cl)cc(Cl)c12 [Compound 1] |  | > 300 | 58 ± 8 |  | [^3 H]-5,7-dichlorokynurenic acid displacement [2]: active; in vivo / CNS anticonvulsant activity [3]: no in vivo activity; also recorded: no CNS activity; also recorded: did not have any in vivo effects |
| CCOC(=O)c1cc(NC(=O)N(CC)CC)c2c(Cl)cc(Cl)cc2n1 [Compound 2] | 100 | > 300 |  |  |  |
| CCCCN(CCCC)C(=O)Nc1cc(C(=O)OCC)nc2cc(Cl)cc(Cl)c12 [Compound 6] | 100 | > 300 | 76 ± 6 |  |  |
| CCOC(=O)c1cc(NC(=O)N(c2ccccc2)c2ccccc2)c2c(Cl)cc(Cl)cc2n1 [Compound 8] | 100 | > 300 | 77 ± 7 |  |  |
| O=C(O)c1cc(NC(=O)N(c2ccccc2)c2ccccc2)c2c(Cl)cc(Cl)cc2n1 [Compound 9] | 100 | > 300 | 25 ± 5 | 20-30 % of Control |  |
| COC(=O)c1cc(NC(=O)N(c2ccccc2)c2ccccc2)c2c(Cl)cc(Cl)cc2n1 [Compound 10, 2-methyl carboxylate-5,7-dichloro-4-[[(diphenylamino)-carbonyl]amino]-quinoline] | 100 | > 300 | 42 ± 7 | 42 % of Control | ED50 (TTE seizure; Mus musculus, 2 h, ip, two hours following treatment, doses 20-500 mg/kg): 134 mg/kg; S.E. of slope of TTE dose-response (TTE seizure; log dose-response plot, ip): 0.44; slope of TTE dose-response (TTE seizure; log dose-response plot, ip): 1.9; effect on [^3 H]-TCP binding ([4]; 10 uM L-glutamic acid and 3 uM glycine, compound 1 uM to 5 nM): No significant effect; effect on [^3 H]-TCP binding ([4]; 10 uM L-glutamic acid and 3 uM glycine, compound 1 uM to 5 nM, listed as 2-methyl carboxylate-5,7-dichloro-4-[[(diphenylamino)-carbonyl]amino]-quinoline): No significant effect; effect on [^3 H]-TCP binding ([4]; L-glutamate, no added glycine, compound 5 uM to 10 nM): no significant effect; PCP activity at the NMDA receptor ([4]; summary statement): tested negative; effect on [^3 H]-muscimol binding (GABA-A) (GABA-A neuroreceptor): No significant difference from control; also recorded: no effect; also recorded: No significant effects were observed; effect on [^3 H]-muscimol binding (GABA-A) (GABA-A neuroreceptor; listed as 2-methyl carboxylate-5,7-dichloro4-[[(diphenylamino)-carbonyl]amino]-quinoline): tested negative; effect on [^3 H]-muscimol binding (GABA-A) (GABA-A neuroreceptor; listed as 2-methyl carboxylate-5,7-dichloro-4-[[(diphenylamino)-carbonyl]amino]-quinoline): No significant effects were observed |
| CCCCN(CCCC)C(=O)Nc1cc(C(=O)O)nc2cc(Cl)cc(Cl)c12 [Compound 7] | 100 | > 300 | 20 ± 11 | 20-30 % of Control |  |
| CCOC(=O)c1cc(NC(=O)N(c2ccccc2)c2cccc(OC)c2)c2c(Cl)cc(Cl)cc2n1 [Compound 11] | 100 | > 300 |  |  | TTE anticonvulsant activity (TTE seizure; ip, 100 mg/kg): active |
| CCN(CC)C(=O)Nc1cc(C(=O)O)nc2cc(Cl)cc(Cl)c12 [Compound 3] | > 100 | 300 |  |  | neurotoxicity in rotorod test [1]: neurotoxic |
